Common to all, as to test: cells
Common to all, as to assay type: cell-based

One experiment concerns A549. The note with it: Homo sapiens, A549, 48 hours exposure, SRB; for CC50: 50% net cell killing (cytotoxic effect), read-out: LC50 (the source's name); for GI50: concentration that produces 50% growth inhibition, read-out: GI50; for IC (TGI): total growth inhibition (cytostatic effect), read-out: TGI. The text has this: (§1) The aim of this assay is to evaluate the in vitro cytostatic (ability to delay or arrest tumor cell growth) or cytotoxic (ability to kill tumor cells) activity of the samples being tested.
(§2) Evaluation of Cytotoxic Activity Using the SBR Colorimetric Assay
(§3) A colorimetric type of assay, using sulforhodamine B (SRB) reaction has been adapted for a quantitative measurement of cell growth and viability (following the technique described by Skehan P et al. J. Natl. Cancer Inst. 1990, 82, 1107-1112).
(§4) This form of assay employs SBS-standard 96-well cell culture microplates (Faircloth et al. Methods in cell science, 1988, 11(4), 201-205; Mosmann et al, Journal of. Immunological. Methods, 1983, 65(1-2), 55-63). All the cell lines used in this study, derived from different types of human cancer, were obtained from the American Type Culture Collection (ATCC).
(§5) Cells were maintained in Dulbecco's Modified Eagle Medium (DMEM) supplemented with 10% Fetal Bovine Serum (FBS), 2 mM L-glutamine, 100 U/mL penicillin and 100 U/mL streptomycin at 37° C., 5% CO2 and 98% humidity. For the experiments, cells were harvested from subconfluent cultures using trypsinization and resuspended in fresh medium before counting and plating.
(§6) Cells were seeded in 96 well microtiter plates at 5×10^3 cells per well in aliquots of 150 μL, and allowed to attach to the plate surface for 18 hours in drug free medium. One control (untreated) plate of each cell line was fixed (as described below) and used for time zero reference value. Afterwards, test samples were added to the cultures in ten serial dilutions, in aliquots of 50 μL, ranging from 10 to 0.00262 μg/mL. After 48 hours exposure, the antitumor effect was estimated by the SRB method: Briefly, cells were washed twice with PBS, fixed for 15 min in 1% glutaraldehyde solution, rinsed twice in PBS, and stained in 0.4% SRB solution for 30 min at room temperature. Cells were then rinsed several times with 1% acetic acid solution and air-dried. SRB was then extracted in 10 mM trizma base solution and the absorbance measured in an automated spectrophotometric plate reader at 490 nm. Cell survival was expressed as percentage of control cell growth. The final effect of the sample being tested was estimated by applying the NCI algorithm (Boyd M R and Paull K D. Drug Dev. Res. 1995, 34, 91-104).
(§7) Using the mean±SD of triplicate cultures, a dose-response curve was automatically generated using nonlinear regression analysis. Three reference parameters were calculated (NCI algorithm) by automatic interpolation: GI50=concentration that produces 50% growth inhibition; TGI=total growth inhibition (cytostatic effect) and LC50=concentration that produces 50% net cell killing (cytotoxic effect).

In another experiment the test system is MDA-MB-231. As to conditions: Homo sapiens, MDA-MB-231, 48 hours exposure, SRB; for CC50: 50% net cell killing (cytotoxic effect), read-out: LC50 (the source's name); for GI50: concentration that produces 50% growth inhibition, read-out: GI50; for IC (TGI): total growth inhibition (cytostatic effect), read-out: TGI.
Source text: as §1, §2, §3, §4, §5, §6, §7

Another experiment deals with HT29. The note with it: Homo sapiens, HT-29, HT29, 48 hours exposure, SRB; for CC50: 50% net cell killing (cytotoxic effect), read-out: LC50 (the source's name); for GI50: concentration that produces 50% growth inhibition, read-out: GI50; for IC (TGI): total growth inhibition (cytostatic effect), read-out: TGI.
Source text: as §1, §2, §3, §4, §5, §6, §7

Where only a bound is given, the exact number is not on record here.

`COC1=CC[C@@H]([C@@H](C)/C=C(C)/C=C\C=C/C(=O)N[C@H](C(=O)N/C=C\C[C@@H](O)C/C=C(\C)Cl)C(C)C)OC1=O` [Compound 30c]: in the experiment with A549, the CC50 was > 182 nM, the GI50 (commonly the concentration at which growth is held to half of that of the control) stood at 0.71 nM and the IC (TGI) worked out at 3.1 nM. Also, in the experiment on MDA-MB-231, the CC50 is 52.8 nM, the concentration for 50% growth inhibition (GI50) is 0.983 nM and the IC (TGI) turned out to be 5.83 nM. For the same compound, in the experiment on HT29, the CC50 is > 182 nM, the GI50 came out at 0.474 nM and the IC (TGI) stood at 0.838 nM.
Regarding `COC1=CC[C@@H]([C@@H](C)/C=C(C)/C=C\C=C/C(=O)N[C@@H](Cc2ccccc2)C(=O)N/C=C\C[C@@H](O)C/C=C(\C)Cl)OC1=O` [Compound 30d], in the experiment with A549, the CC50 was > 16.7 nM, the GI50 was 0.318 nM and the IC (TGI) came to 1.06 nM. Moreover, in the experiment on MDA-MB-231, the CC50 is > 16.7 nM, the GI50 came to 0.31 nM and the IC (TGI) came out at 0.703 nM. In the experiment with HT29, the CC50 was > 16.7 nM, the 50% growth inhibitory concentration (GI50) came out at 0.132 nM and the IC (TGI) was determined as 0.251 nM.
On to `COC1=CC[C@@H]([C@@H](C)/C=C(C)/C=C\C=C\C(=O)N[C@H](C(=O)N/C=C\C[C@@H](O)C/C=C(\C)Cl)C(C)(C)C)OC1=O` [Compound 30e], for which, in the experiment with A549, the CC50 stood at 3550 nM, the GI50 worked out at 35.5 nM and the IC (TGI) came out at 302 nM. Further, in the experiment on MDA-MB-231, the CC50 came to 266 nM, the 50% growth inhibitory concentration (GI50) was 23.1 nM and the IC (TGI) stood at 65.7 nM. In the experiment on HT29, the CC50 is 44.4 nM, the GI50 amounted to 13.5 nM and the IC (TGI) worked out at 21.3 nM.
As for `C/C(Cl)=C\C[C@H](O)C/C=C\NC(=O)[C@@H](NC(=O)\C=C/C=C\C(C)=C\[C@H](C)[C@@H]1CC=CC(=O)O1)C(C)(C)C` [Compound 30f], in the experiment on A549, the CC50 was 919 nM, the 50% growth inhibitory concentration (GI50) was 488 nM and the IC (TGI) is 657 nM. Besides, in the experiment on MDA-MB-231, the CC50 turned out to be 1610 nM, the concentration for 50% growth inhibition (GI50) came to 694 nM and the IC (TGI) turned out to be 1070 nM. Further, in the experiment with HT29, the CC50 turned out to be 1050 nM, the 50% growth inhibitory concentration (GI50) came out at 488 nM and the IC (TGI) came to 713 nM.
On to `COC1=CC[C@@H]([C@@H](C)/C=C(C)/C=C\C=C/C(=O)N[C@@H](Cc2ccccc2)C(=O)N/C=C\C[C@H](C/C=C(\C)Cl)OC(N)=O)OC1=O` [Compound 31], for which, in the experiment with A549, the CC50 is > 15.6 nM, the GI50 came out at 0.0922 nM and the IC (TGI) is 0.219 nM. Moreover, in the experiment on MDA-MB-231, the CC50 amounted to 0.359 nM, the concentration for 50% growth inhibition (GI50) came out at 0.075 nM and the IC (TGI) amounted to 0.15 nM. Moreover, in the experiment with HT29, the CC50 was > 15.6 nM, the concentration for 50% growth inhibition (GI50) amounted to 0.0406 nM and the IC (TGI) was determined as 0.102 nM.
Turning to `COC1=CC[C@@H]([C@@H](C)/C=C(C)/C=C/C=C/C(=O)N[C@H](C(=O)N/C=C\C[C@H](C/C=C(\C)Cl)O[Si](C)(C)C(C)(C)C)C(C)(C)C)OC1=O` [Compound 37], in the experiment on A549, the CC50 was found to be 13900 nM, the 50% growth inhibitory concentration (GI50) turned out to be 3540 nM and the IC (TGI) turned out to be 6640 nM. Besides, in the experiment on MDA-MB-231, the CC50 is > 14800 nM, the 50% growth inhibitory concentration (GI50) came out at 3100 nM and the IC (TGI) is 5610 nM. Also, in the experiment on HT29, the CC50 was found to be 10000 nM, the GI50 stood at 1920 nM and the IC (TGI) turned out to be 2950 nM.
As to `COC1=CC[C@@H]([C@@H](C)/C=C(C)/C=C/C=C/C(=O)N[C@H](C(=O)N/C=C\C[C@@H](O)C/C=C(\C)Cl)C(C)(C)C)OC1=O` [Compound 38], in the experiment on A549, the CC50 was > 178 nM, the 50% growth inhibitory concentration (GI50) turned out to be 46.2 nM and the IC (TGI) is 67.5 nM. In the experiment with MDA-MB-231, the CC50 is > 178 nM, the GI50 came out at 60.4 nM and the IC (TGI) was > 178 nM. In the experiment on HT29, the CC50 was > 178 nM, the GI50 amounted to 39.1 nM and the IC (TGI) was found to be 63.9 nM.

Source of the values: patent US8324406B2, “Antitumoral dihydropyran-2-one compounds” (priority 2006, dated 2012).
